The target in the assay is human δ-opioid receptor (Homo sapiens, UniProt P41143). Kind of assay: [35S]-GTPγS functional assay. Conditions: from [35S]-GTPγS assay. It is filed as biochemical.
Chain of human δ-opioid receptor (P41143 whole entry): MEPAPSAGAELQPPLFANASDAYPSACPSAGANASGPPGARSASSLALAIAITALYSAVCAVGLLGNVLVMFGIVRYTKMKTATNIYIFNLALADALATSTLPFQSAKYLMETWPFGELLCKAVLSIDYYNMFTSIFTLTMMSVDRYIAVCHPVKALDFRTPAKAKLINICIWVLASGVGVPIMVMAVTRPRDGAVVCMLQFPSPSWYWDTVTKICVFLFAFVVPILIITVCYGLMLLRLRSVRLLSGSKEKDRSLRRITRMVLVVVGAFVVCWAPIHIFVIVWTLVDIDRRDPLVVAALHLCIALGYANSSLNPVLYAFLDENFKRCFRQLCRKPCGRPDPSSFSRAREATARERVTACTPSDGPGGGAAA

Take `COc1cc(O)c2c(c1)CC(=O)CCCC(=O)CCC[C@@H](C)OC2=O` [Compound 4, neocosmosin C]: the “classification of functional activity at the human δ-opioid receptor” value was “full agonist”.

The values are drawn from publication PMC3723356 (Journal of natural products, 2013).
